# According to ChEMBL document CHEMBL4406885, “Effect of self-assembly on antimicrobial activity of double-chain short cationic lipopeptides” (Bioorg Med Chem, 2019):
# Calls of active or inactive are those of the source. The calls are words filed in the database; no cut-off is given here. Where a SMILES comes first, the peptide text is derived from it. [ ]: non-standard residue; d: D form. The star is where a group is joined. ξ: configuration not given here. Palmitoyl = CCCCCCCCCCCCCCCC(=O)*; Myristoyl = CCCCCCCCCCCCCC(=O)*; Lauroyl = CCCCCCCCCCCC(=O)*; Decanoyl = CCCCCCCCCC(=O)*; ξDab = NCCC(N)C(=O)O; ξDap = NCC(N)C(=O)O
# Experiments:
# [1] = system: Lipid bilayer; assay: Binding affinity to POPG large unilamellar vesicle at 298 kelvin by ITC method
# [2] = system: Lipid bilayer; assay: Binding affinity to POPC large unilamellar vesicle at 0.2 mM by ITC method
# [3] = system: Lipid bilayer; assay: Binding affinity to DPPG large unilamellar vesicles at 323 kelvin by ITC method
# [4] = system: Lipid bilayer; assay: Binding affinity to DPPG large unilamellar vesicles at 298 kelvin by ITC method
# [5] = system: Pseudomonas aeruginosa; assay: Antibacterial activity against Pseudomonas aeruginosa ATCC 9027 assessed as growth inhibition measured after 18 hrs by CLSI based method; format: functional; settings: ATCC 9027, 18 h
# [6] = system: Staphylococcus aureus; assay: Antibacterial activity against Staphylococcus aureus ATCC 25923 assessed as growth inhibition measured after 18 hrs by CLSI based method; format: functional; settings: ATCC 25923, 18 h
# [7] = system: HaCaT; assay: Cytotoxicity against human HaCaT cells assessed as growth inhibition measured after 24 hrs by MTT assay; format: cell-based
# [8] = system: Escherichia coli; assay: Antibacterial activity against Escherichia coli ATCC 25922 assessed as growth inhibition measured after 18 hrs by CLSI based method; format: functional; settings: ATCC 25922, 18 h
# [9] = system: Candida albicans; assay: Antifungal activity against Candida albicans ATCC 10231 assessed as growth inhibition measured after 48 hrs by CLSI based method; format: functional; settings: ATCC 10231, 48 h
# [10] = system: Staphylococcus epidermidis; assay: Antibacterial activity against Staphylococcus epidermidis PCM 2118 assessed as growth inhibition measured after 18 hrs by CLSI based method; format: functional; settings: PCM 2118, 18 h
# [11] = Surfactant-like property of compound at CMC; format: physicochemical
# [12] = Binding affinity to DPPG lipid assessed as change in melting temperature at 10:1 molar ratio of lipid:lipopeptide by FTIR analysis
# [13] = Critical micelle concentration of compound; format: physicochemical
# [14] = Hemolytic activity in human RBC induction of hemolysis at 128 ug/ml at MIC after 60 mins by spectrophotometric method relative to control; format: cell-based, Erythrocyte; settings: human red blood cells (erythrocytes), read-out: Activity
# [15] = Critical micelle concentration of compound by ITC method; format: physicochemical
SMILES,pK [1],Activity [2],pK [3],pK [4],MIC [5],MIC [6],MIC [8],MIC [9],MIC [10],gammaCMC [11],ΔTm [12],CMC [13],CMC [15],IC50 [7],"hemolysis at 1 h, 128 ug/ml [14]"
CCCCCCCCCC(=O)NCCCC[C@H](NC(=O)CCCCCCCCC)C(=O)N[C@@H](CCCCN)C(=O)N[C@@H](CCCCN)C(=O)N[C@@H](CCCCN)C(N)=O (Decanoyl-K(Decanoyl)KKK-NH2),,inactive,,,8 µg/mL,64 µg/mL,16 µg/mL,8 µg/mL,2 µg/mL,,,,,18.8 µg/mL,
CCCCCCCCCC(=O)NCCC(NC(=O)CCCCCCCCC)C(=O)N[C@@H](CCCCN)C(=O)N[C@@H](CCCCN)C(=O)N[C@@H](CCCCN)C(N)=O (some centres not stated) (Decanoyl-[ξDab](Decanoyl)KKK-NH2),,inactive,,,8 µg/mL,8 µg/mL,16 µg/mL,16 µg/mL,4 µg/mL,41.5 mN/meter,2.5 to 3 °C,3.16 mM,,1.16 µg/mL,
CCCCCCCCCCCC(=O)NCCCC[C@H](NC(=O)CCCCCCCCCCC)C(=O)N[C@@H](CCCCN)C(=O)N[C@@H](CCCCN)C(=O)N[C@@H](CCCCN)C(N)=O (Lauroyl-K(Lauroyl)KKK-NH2),,inactive,,,256 µg/mL,64 µg/mL,128 µg/mL,8 µg/mL,16 µg/mL,,,,,31.1 µg/mL,
CCCCCCCCCCCC(=O)NCCC(NC(=O)CCCCCCCCCCC)C(=O)N[C@@H](CCCCN)C(=O)N[C@@H](CCCCN)C(=O)N[C@@H](CCCCN)C(N)=O (some centres not stated) (Lauroyl-[ξDab](Lauroyl)KKK-NH2),,inactive,,,64 µg/mL,64 µg/mL,64 µg/mL,16 µg/mL,8 µg/mL,40 mN/meter,,1.25 mM,1.34 mM,30.7 µg/mL,13%
CCCCCCCCCCCCCC(=O)NCCCC[C@H](NC(=O)CCCCCCCCCCCCC)C(=O)N[C@@H](CCCCN)C(=O)N[C@@H](CCCCN)C(=O)N[C@@H](CCCCN)C(N)=O (Myristoyl-K(Myristoyl)KKK-NH2),,inactive,,,512 µg/mL,> 512 µg/mL,> 512 µg/mL,512 µg/mL,256 µg/mL,,,,,,
CCCCCCCCCCCCCC(=O)NCCC(NC(=O)CCCCCCCCCCCCC)C(=O)N[C@@H](CCCCN)C(=O)N[C@@H](CCCCN)C(=O)N[C@@H](CCCCN)C(N)=O (some centres not stated) (Myristoyl-[ξDab](Myristoyl)KKK-NH2),,inactive,,,> 512 µg/mL,> 512 µg/mL,> 512 µg/mL,> 512 µg/mL,> 512 µg/mL,46.9 mN/meter,,0.45 mM,0.28 to 0.53 mM,,
CCCCCCCCCCCCCC(=O)NCC(NC(=O)CCCCCCCCCCCCC)C(=O)N[C@@H](CCCCN)C(=O)N[C@@H](CCCCN)C(=O)N[C@@H](CCCCN)C(N)=O (some centres not stated) (Myristoyl-[ξDap](Myristoyl)KKK-NH2),,inactive,,,> 512 µg/mL,> 512 µg/mL,> 512 µg/mL,> 512 µg/mL,128 µg/mL,46.1 mN/meter,,0.35 mM,0.35 mM,,
CCCCCCCCCCCCCCCC(=O)NCCCC[C@H](NC(=O)CCCCCCCCCCCCCCC)C(=O)N[C@@H](CCCCN)C(=O)N[C@@H](CCCCN)C(=O)N[C@@H](CCCCN)C(N)=O (Palmitoyl-K(Palmitoyl)KKK-NH2),,inactive,,,> 512 µg/mL,> 512 µg/mL,> 512 µg/mL,> 512 µg/mL,> 512 µg/mL,,,,,,
CCCCCCCCCCCCCCCC(=O)NCCC(NC(=O)CCCCCCCCCCCCCCC)C(=O)N[C@@H](CCCCN)C(=O)N[C@@H](CCCCN)C(=O)N[C@@H](CCCCN)C(N)=O (some centres not stated) (Palmitoyl-[ξDab](Palmitoyl)KKK-NH2),,inactive,,,> 512 µg/mL,> 512 µg/mL,> 512 µg/mL,> 512 µg/mL,256 µg/mL,41.5 mN/meter,,0.32 mM,0.06 to 0.22 mM,,
CCCCCCCCCCCCCCCC(=O)NCC(NC(=O)CCCCCCCCCCCCCCC)C(=O)N[C@@H](CCCCN)C(=O)N[C@@H](CCCCN)C(=O)N[C@@H](CCCCN)C(N)=O (some centres not stated) (Palmitoyl-[ξDap](Palmitoyl)KKK-NH2),,inactive,,,> 512 µg/mL,> 512 µg/mL,> 512 µg/mL,> 512 µg/mL,512 µg/mL,45.9 mN/meter,,0.32 mM,0.35 to 0.7 mM,,

# More lines, main results first:
pK [1],Activity [2],pK [3],pK [4],MIC [5],MIC [6],MIC [8],MIC [9],MIC [10],gammaCMC [11],ΔTm [12],CMC [13],CMC [15],SMILES,IC50 [7],"hemolysis at 1 h, 128 ug/ml [14]"
6.83 to 50.7,inactive,4.5,6.59 to 7.4,,,,,,,,,,CCCCCCCCCC(=O)NCC(NC(=O)CCCCCCCCC)C(=O)O (configuration not stated),,
,inactive,5.06,5.76 to 7.37,,,,,,,,,,CCCCCCCCCC(=O)NCCC(NC(=O)CCCCCCCCC)C(=O)O (configuration not stated),,
6.34,inactive,5.37,7.18,,,,,,,,,,CCCCCCCCCCCC(=O)NCC(NC(=O)CCCCCCCCCCC)C(=O)O (configuration not stated),,
4.1,inactive,4.52,5.14 to 7.38,,,,,,,,,,CCCCCCCCCCCC(=O)NCCC(NC(=O)CCCCCCCCCCC)C(=O)O (configuration not stated),,
,inactive,inactive,4.26 to 6.99,,,,,,,,,,CCCCCCCCCCCCCCCC(=O)NCC(NC(=O)CCCCCCCCCCCCCCC)C(=O)O (configuration not stated),,
,inactive,,,4 µg/mL,2 µg/mL,8 µg/mL,16 µg/mL,4 µg/mL,42.5 mN/meter,2.5 to 3 °C,3.24 mM,,CCCCCCCCCC(=O)NCC(NC(=O)CCCCCCCCC)C(=O)N[C@@H](CCCCN)C(=O)N[C@@H](CCCCN)C(=O)N[C@@H](CCCCN)C(N)=O (some centres not stated) (Decanoyl-[ξDap](Decanoyl)KKK-NH2),75 µg/mL,
,inactive,,,128 µg/mL,32 µg/mL,256 µg/mL,8 µg/mL,8 µg/mL,41.3 mN/meter,,1.41 mM,1.53 mM,CCCCCCCCCCCC(=O)NCC(NC(=O)CCCCCCCCCCC)C(=O)N[C@@H](CCCCN)C(=O)N[C@@H](CCCCN)C(=O)N[C@@H](CCCCN)C(N)=O (some centres not stated) (Lauroyl-[ξDap](Lauroyl)KKK-NH2),43.3 µg/mL,50%
